According to ChEMBL document CHEMBL1125225, “Delineating the pharmacophoric elements of huperzine A: importance of the unsaturated three-carbon bridge to its AChE inhibitory activity” (J Med Chem, 1991):

Biological target: T1, Acetylcholinesterase (Rattus norvegicus, UniProt P37136)
T1 sequence (P37136 whole entry): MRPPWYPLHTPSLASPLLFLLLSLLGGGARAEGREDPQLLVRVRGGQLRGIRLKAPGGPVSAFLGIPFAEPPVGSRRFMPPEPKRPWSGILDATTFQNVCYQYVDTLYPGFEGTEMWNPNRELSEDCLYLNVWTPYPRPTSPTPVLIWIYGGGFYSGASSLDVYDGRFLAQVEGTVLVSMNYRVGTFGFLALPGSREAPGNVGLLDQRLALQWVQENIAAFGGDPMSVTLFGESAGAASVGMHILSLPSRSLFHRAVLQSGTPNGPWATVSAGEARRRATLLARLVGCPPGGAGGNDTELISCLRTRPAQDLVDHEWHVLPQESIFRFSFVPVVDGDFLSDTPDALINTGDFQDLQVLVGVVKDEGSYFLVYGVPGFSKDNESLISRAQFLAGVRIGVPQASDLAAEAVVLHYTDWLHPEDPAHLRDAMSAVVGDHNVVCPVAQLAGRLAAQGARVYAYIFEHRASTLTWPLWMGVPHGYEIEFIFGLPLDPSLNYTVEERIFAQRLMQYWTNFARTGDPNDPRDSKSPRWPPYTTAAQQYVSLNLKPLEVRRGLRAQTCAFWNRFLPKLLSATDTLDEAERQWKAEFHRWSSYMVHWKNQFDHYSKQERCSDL
Test: Compound was tested for its ability to inhibit the action of acetylcholinesterase isolated from rat brain cortex

For `C/C=C1\C2CCC[C@]1(N)c1ccc(O)nc1C2`, the IC50 was 9.82 µM.

Work on `NCc1ccc(O)nc1` yielded an IC50 greater than 900 µM.

Work on `C/C=C1\CCc2[nH]c(=O)ccc2[C@]1(C)N` yielded an IC50 of 338 µM.

`CN(C)Cc1ccc(=O)[nH]c1` showed an IC50 greater than 900 µM.
